Assay results: PMC10020352 (Frontiers in Pharmacology, 2023)
pEC50: −log10 of the molar value. Where a SMILES comes first, the peptide text is derived from it. [ ]: non-standard residue; d: D form. Phe(4-NO2) = N[C@@H](Cc1ccc([N+](=O)[O-])cc1)C(=O)O; Phe(4-Cl) = N[C@@H](Cc1ccc(Cl)cc1)C(=O)O; Phe(4-F) = N[C@@H](Cc1ccc(F)cc1)C(=O)O; NMeR = CN[C@@H](CCCNC(=N)N)C(=O)O; Aoc = NCCCCCCCC(=O)O; Ahx = NCCCCCC(=O)O; Sar = CNCC(=O)O

Tests used:
[1] = molecular target: T1, bovine pancreatic trypsin (Bos taurus, UniProt P00760); assay: Metabolic stability in trypsin; assay type: in vitro ADME; conditions: bovine pancreatic trypsin 2.5 μg/mL, pH 8-8.5, 37°C, peptide 100 μM; read-out: Stability (t1/2) Trypsin
T1 sequence (P00760 24-246): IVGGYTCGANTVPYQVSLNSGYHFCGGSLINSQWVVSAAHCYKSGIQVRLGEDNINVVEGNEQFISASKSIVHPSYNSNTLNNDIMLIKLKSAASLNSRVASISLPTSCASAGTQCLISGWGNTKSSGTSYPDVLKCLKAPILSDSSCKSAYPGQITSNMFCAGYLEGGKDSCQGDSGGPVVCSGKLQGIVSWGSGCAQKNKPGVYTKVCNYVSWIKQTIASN
Procedure: (§1) Whole blood was collected in-house from adult mixed-gender Wistar rats (RRID: RGD_150520162), and plasma was prepared in 0.2% EDTA as per standard practice. Peptides (final 100 μM) were incubated with pooled rat plasma at 37°C. Samples were collected at different time intervals 0, 5, 10, 15, 30, 60, and 120 min. At each time point, collected samples were immediately added to three volumes of cold ACN. This mixture was vortexed for 30 s and then centrifuged at room temperature (13 K rpm, 5 min). The supernatant was taken and directly placed in glass HPLC vials for LCMS analysis. The protocol for the trypsin stability assay was as for the plasma stability assay except for the […] (bovine pancreatic trypsin 2.5 μg/mL in NH4HCO3 buffer, approx. pH 8–8.5, 37°C).
(§2) Relative concentrations of each peptide from stability assays in plasma or trypsin were analysed using an Agilent binary LC system consisting of an Agilent 1290 Infinity LC pump, Agilent 1,290 auto-sampler coupled with Triple Quad Mass-Spectrometer (MS, model 6460, Agilent Technologies). A bidentate C18 HPLC column (Cogent, 100 Å, […]) with a binary solvent gradient composed of Solvent: A 0.1%v/v formic acid in MQ water and Solvent B: 0.1% v/v formic acid in ACN was used for the separation. The MS parameters were optimised for all compounds to obtain the highest signal in positive Total Ion Current (TIC) mode. Data were analysed using a combination of Microsoft Excel and GraphPad Prism software packages. Data was normalised to time point zero (immediately after compound addition) and expressed in percentages from t = 0. Half-lives were calculated in GraphPad Prism software (v8.3).

DOP receptor = molecular target: T2, DOP receptor (Homo sapiens, UniProt P41143); assay: cell-based
T2 construct: expressed in transfected cells; host or cells: HEK293

KOP receptor = KOP receptor (Homo sapiens, UniProt P41145); assay: cell-based; assay type: cell-based
MOP receptor = molecular target: T3, MOP receptor (Homo sapiens, UniProt P35372); assay: cell-based
T3 construct: expressed in transfected cells; host or cells: HEK293

[2] = Metabolic stability in rat plasma; assay type: in vitro ADME; conditions: pooled rat plasma, 37°C, peptide 100 μM; for half-life: rat, plasma, read-out: Stability (t1/2) Plasma
Procedure: as §1, §2

[3] = system: FCA model of inflammatory nociception; conditions: rat, in vivo

T3 sequence (P35372 whole entry): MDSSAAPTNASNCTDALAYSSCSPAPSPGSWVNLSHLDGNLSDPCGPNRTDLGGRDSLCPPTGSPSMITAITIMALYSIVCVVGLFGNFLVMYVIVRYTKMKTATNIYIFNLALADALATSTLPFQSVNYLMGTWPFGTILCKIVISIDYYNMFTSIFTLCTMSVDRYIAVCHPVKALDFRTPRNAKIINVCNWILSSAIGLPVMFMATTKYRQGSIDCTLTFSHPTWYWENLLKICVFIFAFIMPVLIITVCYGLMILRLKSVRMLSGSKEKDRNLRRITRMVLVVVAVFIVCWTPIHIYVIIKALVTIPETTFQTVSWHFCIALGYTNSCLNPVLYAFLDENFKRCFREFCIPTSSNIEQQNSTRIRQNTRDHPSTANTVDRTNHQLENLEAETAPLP
T2 sequence (P41143 whole entry): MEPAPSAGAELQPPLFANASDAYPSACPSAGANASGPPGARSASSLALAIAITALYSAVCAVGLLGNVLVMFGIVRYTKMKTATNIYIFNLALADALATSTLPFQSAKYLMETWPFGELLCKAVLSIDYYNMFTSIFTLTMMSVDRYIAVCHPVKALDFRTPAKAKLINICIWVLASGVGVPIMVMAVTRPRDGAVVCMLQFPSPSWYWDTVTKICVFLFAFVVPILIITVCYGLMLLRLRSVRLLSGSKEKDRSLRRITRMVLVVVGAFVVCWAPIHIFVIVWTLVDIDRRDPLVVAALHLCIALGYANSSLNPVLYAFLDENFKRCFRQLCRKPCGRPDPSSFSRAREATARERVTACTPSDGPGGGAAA
KOP receptor, sequence (P41145 whole entry): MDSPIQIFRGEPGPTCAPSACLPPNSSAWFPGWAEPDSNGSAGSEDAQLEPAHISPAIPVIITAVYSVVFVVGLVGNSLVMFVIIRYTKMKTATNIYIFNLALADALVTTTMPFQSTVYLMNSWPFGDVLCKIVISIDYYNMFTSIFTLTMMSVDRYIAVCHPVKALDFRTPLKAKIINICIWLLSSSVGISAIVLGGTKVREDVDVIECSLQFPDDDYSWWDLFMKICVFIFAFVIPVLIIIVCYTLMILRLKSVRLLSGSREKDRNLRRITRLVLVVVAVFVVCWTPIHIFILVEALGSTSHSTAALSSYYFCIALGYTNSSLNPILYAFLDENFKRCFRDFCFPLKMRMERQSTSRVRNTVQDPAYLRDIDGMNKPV

Row | Structure (SMILES) | half-life [1] [min] | pEC50 (DOP receptor) | Selectivity (fold) KOP/DOP (DOP receptor) [fold] | pEC50 (KOP receptor) | pEC50 (MOP receptor) | Selectivity (fold) KOP/DOP (MOP receptor) [fold] | half-life [2] [min] | Stability (t1/2) Plasma [2] [min] | selectivity for KOP receptor over MOP receptor and DOP receptor (KOP receptor) [fold] | paw withdrawal threshold in the contralateral (uninflamed, untreated) paw [3]
1 | CC(C)C[C@@H](NC(=O)[C@@H](Cc1ccccc1)NC(=O)[C@H](N)Cc1ccccc1)C(=O)N[C@H](CCCCN)C(=O)N1CCC(N)(C(=O)O)CC1 [CR845, reference compound] | > 1000 |  |  |  |  |  |  |  |  | 
2 | CC(C)C[C@H](NC(=O)[C@H](Cc1ccc([N+](=O)[O-])cc1)NC(=O)CNC(=O)CNC(=O)[C@@H](N)Cc1ccc(O)cc1)C(=O)N[C@@H](CCCNC(=N)N)C(=O)N[C@H](CCCNC(=N)N)C(N)=O [KA201] | 6.4 | 5.66 | 2 | 5.96 | 5.77 | 2 |  |  |  | 
3 | CC(C)C[C@H](NC(=O)[C@H](Cc1ccc([N+](=O)[O-])cc1)NC(=O)CNC(=O)CN(C)C(=O)[C@@H](N)Cc1ccc(O)cc1)C(=O)N[C@@H](CCCNC(=N)N)C(=O)N[C@H](CCCNC(=N)N)C(N)=O [KA202] | 8.5 | < 5.00 |  | 6.03 | < 5.00 |  |  |  |  | 
4 | CC(C)C[C@H](NC(=O)[C@H](Cc1ccccc1)NC(=O)CN(C)C(=O)[C@@H](N)Cc1ccc(O)cc1)C(=O)N[C@@H](CCCNC(=N)N)C(=O)N[C@H](CCCNC(=N)N)C(N)=O [KA203] (H-Y[Sar]FLR[dR]-NH2) | 13.6 | < 5.00 |  | 7.13 | < 5.00 |  | 72 |  |  | 
5 | CC(C)C[C@H](NC(=O)[C@H](Cc1ccc([N+](=O)[O-])cc1)NC(=O)CN(C)C(=O)[C@@H](N)Cc1ccc(O)cc1)C(=O)N[C@H](CCCNC(=N)N)C(=O)N[C@@H](CCCNC(=N)N)C(N)=O [KA205] (H-Y[Sar][Phe(4-NO2)]L[dR]R-NH2) | 3260 | 5.41 | 2 | 5.75 | < 5.00 |  | 28.7 |  |  | 
6 | CC(C)C[C@H](NC(=O)[C@H](Cc1ccc(Cl)cc1)NC(=O)CN(C)C(=O)[C@@H](N)Cc1ccc(O)cc1)C(=O)N[C@@H](CCCNC(=N)N)C(=O)N[C@H](CCCNC(=N)N)C(N)=O [KA206] (H-Y[Sar][Phe(4-Cl)]LR[dR]-NH2) | 15.9 | < 5.00 |  | 8.21 | < 5.00 |  | 31.9 |  |  | 
7 | CC(C)C[C@H](NC(=O)[C@H](Cc1ccc(F)cc1)NC(=O)CN(C)C(=O)[C@@H](N)Cc1ccc(O)cc1)C(=O)N[C@@H](CCCNC(=N)N)C(=O)N[C@H](CCCNC(=N)N)C(N)=O [KA207] (H-Y[Sar][Phe(4-F)]LR[dR]-NH2) | 7.6 | < 5.00 |  | 8.17 | 5.46 | 515 | 38.2 |  |  | 
8 | CC(C)C[C@H](NC(=O)[C@H](Cc1ccc(Cl)cc1)NC(=O)CN(C)C(=O)[C@@H](N)Cc1ccc(O)cc1)C(=O)N(C)[C@@H](CCCNC(=N)N)C(=O)N[C@H](CCCNC(=N)N)C(N)=O [KA301] (H-Y[Sar][Phe(4-Cl)]L[NMeR][dR]-NH2) |  |  |  |  |  |  | 2240 |  |  | 
9 | CC(C)C[C@H](NC(=O)[C@H](Cc1ccc(F)cc1)NC(=O)CN(C)C(=O)[C@@H](N)Cc1ccc(O)cc1)C(=O)N(C)[C@@H](CCCNC(=N)N)C(=O)N[C@H](CCCNC(=N)N)C(N)=O [KA302] (H-Y[Sar][Phe(4-F)]L[NMeR][dR]-NH2) | > 1000 | 5.78 | 143 | 7.93 | 5.40 | 344 |  | 323.9 |  | 
10 | CC(C)C[C@H](NC(=O)[C@H](Cc1ccc([N+](=O)[O-])cc1)NC(=O)CN(C)C(=O)[C@@H](N)Cc1ccc(O)cc1)C(=O)N(C)[C@@H](CCCNC(=N)N)C(=O)N[C@H](CCCNC(=N)N)C(N)=O [KA303] (H-Y[Sar][Phe(4-NO2)]L[NMeR][dR]-NH2) | 12.1 | 5.88 | 98 | 7.87 | < 5.00 |  | 168 |  |  | 
11 | CC(C)C[C@H](NC(=O)[C@H](Cc1ccc(Cl)cc1)NC(=O)CN(C)C(=O)[C@@H](N)Cc1ccc(O)cc1)C(=O)N[C@@H](CCCNC(=N)N)C(=O)N[C@H](CCCNC(=N)N)C(=O)NCCCCCC(N)=O [KA304] (H-Y[Sar][Phe(4-Cl)]LR[dR][Ahx]-NH2) | 8.33 | 5.80 | 440 | 8.44 | 6.44 | 100 | 79 |  |  | 
12 | CC(C)C[C@H](NC(=O)[C@H](Cc1ccc(Cl)cc1)NC(=O)CN(C)C(=O)[C@@H](N)Cc1ccc(O)cc1)C(=O)N[C@@H](CCCCN)C(=O)N[C@H](CCCNC(=N)N)C(N)=O [KA306] (H-Y[Sar][Phe(4-Cl)]LK[dR]-NH2) | 69.9 | < 5.00 |  | 7.59 | < 5.00 |  | 160 |  |  | 
13 | CC(C)C[C@H](NC(=O)[C@H](Cc1ccc(Cl)cc1)NC(=O)[C@H](C)NC(=O)[C@@H](N)Cc1ccc(O)cc1)C(=O)N[C@@H](CCCNC(=N)N)C(=O)N[C@H](CCCNC(=N)N)C(N)=O [KA307] (H-YA[Phe(4-Cl)]LR[dR]-NH2) |  | < 5.00 |  | 5.98 | 5.73 | 2 |  |  |  | 
14 | C[C@@H](O)[C@H](NC(=O)[C@H](Cc1ccc(Cl)cc1)NC(=O)CN(C)C(=O)[C@@H](N)Cc1ccc(O)cc1)C(=O)N[C@@H](CCCNC(=N)N)C(=O)N[C@H](CCCNC(=N)N)C(N)=O [KA308] (H-Y[Sar][Phe(4-Cl)]TR[dR]-NH2) |  | < 5.00 |  | 6.64 | 5.23 | 25 |  |  |  | 
15 | CC(C)C[C@H](NC(=O)[C@H](Cc1ccc(Cl)cc1)NC(=O)CN(C)C(=O)[C@@H](N)Cc1ccc(O)cc1)C(=O)N[C@@H](CCCNC(=N)N)C(=O)N(C)[C@@H](CCCNC(=N)N)C(N)=O [KA309] (H-Y[Sar][Phe(4-Cl)]LR[NMeR]-NH2) | > 1000 | < 5.00 |  | 8.41 | < 5.00 |  |  | 174.1 |  | 
16 | CC(C)C[C@H](NC(=O)[C@H](Cc1ccc([N+](=O)[O-])cc1)NC(=O)CN(C)C(=O)[C@@H](N)Cc1ccc(O)cc1)C(=O)N[C@@H](CCCNC(=N)N)C(=O)N(C)[C@@H](CCCNC(=N)N)C(N)=O [KA310] (H-Y[Sar][Phe(4-NO2)]LR[NMeR]-NH2) | > 1000 | < 5.00 |  | 8.75 | < 5.00 |  |  |  | > 1000 | 
17 | CC(C)C[C@H](NC(=O)[C@H](Cc1ccc(Cl)cc1)NC(=O)CN(C)C(=O)[C@@H](N)Cc1ccc(O)cc1)C(=O)N[C@@H](CCCNC(=N)N)C(=O)N(C)[C@@H](CCCNC(=N)N)C(=O)NCCCCCCCC(N)=O [KA312] (H-Y[Sar][Phe(4-Cl)]LR[NMeR][Aoc]-NH2) | 445 | < 5.00 |  | 8.42 | < 5.00 |  | 15.6 |  |  | 
18 | CC(C)C[C@H](NC(=O)[C@H](Cc1ccc([N+](=O)[O-])cc1)NC(=O)CN(C)C(=O)[C@@H](N)Cc1ccc(O)cc1)C(=O)N[C@@H](CCCNC(=N)N)C(=O)N(C)[C@@H](CCCNC(=N)N)C(=O)NCCCCCCCC(N)=O [KA313] (H-Y[Sar][Phe(4-NO2)]LR[NMeR][Aoc]-NH2) | > 1000 | < 5.00 |  | 8.35 | < 5.00 |  | 12.5 |  |  | 
19 | CC(C)C[C@H](NC(=O)[C@H](Cc1ccc([N+](=O)[O-])cc1)NC(=O)CN(C)C(=O)[C@@H](N)Cc1ccc(O)cc1)C(=O)N[C@@H](CCCNC(=N)N)C(=O)N[C@H](CCCNC(=N)N)C(=O)NCCCCCCCC(N)=O [KA314] (H-Y[Sar][Phe(4-NO2)]LR[dR][Aoc]-NH2) | 16.1 | < 5.00 |  | 8.60 | < 5.00 |  | 18.6 |  |  | 
20 | CN1CC[C@]23c4c5ccc(O)c4O[C@H]2[C@@H](O)C=C[C@H]3[C@H]1C5 [Morphine, reference compound] |  |  |  |  |  |  |  |  |  | significantly reduced
